Results on 21 molecules are retold here after patent US20190048016A1, “SUBSTITUTED BRIDGED UREA ANALOGS AS SIRTUIN MODULATORS” (GlaxoSmithKline Intellectual Property(No.2)Limited, priority 2014, published 2019).

The target of the assay is T1, SIRT1 (Homo sapiens, UniProt Q96EB6).
T1 sequence (Q96EB6 1-747): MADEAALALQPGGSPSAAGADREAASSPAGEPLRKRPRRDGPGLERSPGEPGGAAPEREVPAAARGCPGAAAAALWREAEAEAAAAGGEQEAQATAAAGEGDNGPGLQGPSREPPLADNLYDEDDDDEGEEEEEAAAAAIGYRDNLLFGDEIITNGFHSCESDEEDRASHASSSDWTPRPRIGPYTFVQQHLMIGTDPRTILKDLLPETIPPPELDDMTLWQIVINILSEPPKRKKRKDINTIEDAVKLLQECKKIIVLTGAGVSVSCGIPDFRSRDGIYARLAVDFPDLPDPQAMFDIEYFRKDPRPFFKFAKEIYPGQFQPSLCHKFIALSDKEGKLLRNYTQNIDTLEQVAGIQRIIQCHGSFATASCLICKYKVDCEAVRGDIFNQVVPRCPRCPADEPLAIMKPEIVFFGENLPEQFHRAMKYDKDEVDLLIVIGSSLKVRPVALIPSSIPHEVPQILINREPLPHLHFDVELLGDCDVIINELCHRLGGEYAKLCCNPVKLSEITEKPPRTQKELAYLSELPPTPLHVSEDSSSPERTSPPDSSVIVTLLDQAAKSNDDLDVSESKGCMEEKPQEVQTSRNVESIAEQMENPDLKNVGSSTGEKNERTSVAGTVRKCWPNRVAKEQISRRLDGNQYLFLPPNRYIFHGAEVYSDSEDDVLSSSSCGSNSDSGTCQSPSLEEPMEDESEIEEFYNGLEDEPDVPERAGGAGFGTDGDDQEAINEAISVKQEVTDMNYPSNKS
Put plainly: Trp mass spectrometry assay of SIRT1 activation (deacetylation of Ac-R-H-K-K(Ac)-W-NH2 peptide, OAADPR formation). The assay is classed as biochemical. To be noted: Trp peptide 0.5 μM, 120 μM βNAD+, 10 nM SIRT1, 25 min, 25° C.; for Emax: 25 min, read-out: TRP MAX RESP (percent maximum fold activation relative to control = 100%). The method, boiled down: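 10 nM His-tagged SIRT1 (E. coli expressed) with 0.5 μM Ac-RHKK(Ac)W-NH2 and 120 μM βNAD+, 25 min at 25° C, HEPES pH 7.5, […]; formic acid stop. OAADPR or deacetylated peptide measured by mass spectrometry; EC1.5 = concentration giving 150% activity versus DMSO control; maximum activation also reported.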

Take `Cc1ccc2c(NC(=O)N3c4nc(C(=O)NCC(F)(F)F)ccc4N4CCC[C@H]3C4)n[nH]c2n1` [Example 41, (9S)-N10-(6-methyl-1H-pyrazolo[3,4-b]pyridin-3-yl)-N2-(2,2,2-trifluoroethyl)-8,9-dihydro-6H-5,9-methanopyrido[2,3-b][1,4]diazocine-2,10(7H)-dicarboxamide]: the Emax is at least 150% and the “TRP Activity (EC1.5, concentration of compound required to increase SIRT1 activity by 50% over control)” value was “A (EC1.5<1 μM)”.
The corresponding values for `O=C(Nc1ccccn1)N1c2nc(-c3ccnc(C(F)(F)F)c3)ccc2N2CCC[C@H]1C2` [Example 7, (9S)-N-(pyridin-2-yl)-2-(2-(trifluoromethyl)pyridin-4-yl)-8,9-dihydro-6H-5,9-methanopyrido[2,3-b][1,4]diazocine-10(7H)-carboxamide] are at least 150% and “A (EC1.5<1 μM)”.
On to `Cc1ccc2c(NC(=O)N3c4nc(C(=O)N[C@H](C)C(F)(F)F)cc(C)c4N4CCC[C@H]3C4)n[nH]c2n1` [Example 47, (9S)-4-methyl-N10-(6-methyl-1H-pyrazolo[3,4-b]pyridin-3-yl)-N2-((R)-1,1,1-trifluoropropan-2-yl)-8,9-dihydro-6H-5,9-methanopyrido[2,3-b][1,4]diazocine-2,10(7H)-dicarboxamide], for which the Emax was at least 150% and the “TRP Activity (EC1.5, concentration of compound required to increase SIRT1 activity by 50% over control)” value is on record as “A (EC1.5<1 μM)”.
In the case of `O=C(Nc1ccc(F)cn1)c1cc2c(nc1N1CCCC(C(F)(F)F)C1)N[C@H]1CCCN2C1` (single isomer, unassigned) [Example 58], the Emax is at most 150%.
In the case of `O=C(Nc1cnccn1)N1c2nc(-c3ccnc(C(F)(F)F)c3)ccc2N2CCC[C@H]1C2` [Example 17, (9S)-N-(pyrazin-2-yl)-2-(2-(trifluoromethyl)pyridin-4-yl)-8,9-dihydro-6H-5,9-methanopyrido[2,3-b][1,4]diazocine-10(7H)-carboxamide], the Emax is at least 150% and the “TRP Activity (EC1.5, concentration of compound required to increase SIRT1 activity by 50% over control)” value was “A (EC1.5<1 μM)”.
Turning to `Cc1cc2c(nc1-c1cccc(C(F)(F)F)c1)N(C(=O)Nc1cc(OC[C@H](O)CO)ccn1)[C@H]1CCCN2C1` [Example 91, (9S)-N-(4-((R)-2,3-dihydroxypropoxy)pyridin-2-yl)-3-methyl-2-(3-(trifluoromethyl)phenyl)-8,9-dihydro-6H-5,9-methanopyrido[2,3-b][1,4]diazocine-10(7H)-carboxamide], the Emax is at least 150% and the “TRP Activity (EC1.5, concentration of compound required to increase SIRT1 activity by 50% over control)” value was “A (EC1.5<1 μM)”.
The corresponding values for `O=C(Nc1cnccn1)N1c2nc(N3CCCC(C(F)(F)F)C3)ccc2N2CCC[C@H]1C2` (single isomer, unassigned) [Example 30] are at least 150% and “A (EC1.5<1 μM)”.
As to `COc1cncc(NC(=O)N2c3nc(-c4ccnc(C)c4)ccc3N3CCC[C@H]2C3)n1` [Example 20, (9S)-N-(6-methoxypyrazin-2-yl)-2-(2-methylpyridin-4-yl)-8,9-dihydro-6H-5,9-methanopyrido[2,3-b][1,4]diazocine-10(7H)-carboxamide], the Emax is at least 150% and the “TRP Activity (EC1.5, concentration of compound required to increase SIRT1 activity by 50% over control)” value was “A (EC1.5<1 μM)”.
The corresponding values for `Cc1ccc2c(NC(=O)N3c4nc(C(=O)NC5CC5(F)F)ccc4N4CCC[C@H]3C4)n[nH]c2n1` (single isomer, unassigned) [Example 48] are at least 150% and “A (EC1.5<1 μM)”.
The corresponding values for `O=C(Nc1ccc(OC[C@@H](O)CO)cn1)N1c2nc(-c3cccc(C(F)(F)F)c3)c(Cl)cc2N2CCC[C@H]1C2` [Example 74, (9S)-3-chloro-N-(5-((S)-2,3-dihydroxypropoxy)pyridin-2-yl)-2-(3-(trifluoromethyl)phenyl)-8,9-dihydro-6H-5,9-methanopyrido[2,3-b][1,4]diazocine-10(7H)-carboxamide] are at least 150% and “A (EC1.5<1 μM)”.
The corresponding values for `O=C(Nc1ccccn1)N1c2nc(N3CCC(C(F)(F)F)C3)ccc2N2CCC[C@H]1C2` (single isomer, unassigned) [Example 8] are at least 150% and “B (EC1.5 1-25 μM)”.
Consider `Cc1ccc2c(NC(=O)N3c4nc(C(=O)NC5CC5(F)F)ccc4N4CCC[C@H]3C4)n[nH]c2n1` (single isomer, unassigned) [Example 53], for which the “TRP Activity (EC1.5, concentration of compound required to increase SIRT1 activity by 50% over control)” value is “A (EC1.5<1 μM)”.
As for `O=C(Nc1ccc(F)cn1)N1c2nc(N3CCCC(C(F)(F)F)C3)ccc2N2CCC[C@H]1C2` (single isomer, unassigned) [Example 29], the “TRP Activity (EC1.5, concentration of compound required to increase SIRT1 activity by 50% over control)” value is “B (EC1.5 1-25 μM)” and the “TRP MAX RESP (percent maximum fold activation relative to control = 100%)” value was “A (Fold activation≥150%)”.
In the case of `O=C(Nc1ncccn1)N1c2nc(N3CCCC(C(F)(F)F)C3)ccc2N2CCC[C@H]1C2` (single isomer, unassigned) [Example 22], the “TRP Activity (EC1.5, concentration of compound required to increase SIRT1 activity by 50% over control)” value is recorded as “A (EC1.5<1 μM)”.
For `O=C(NC1CC1)N1c2nc(-c3cccc(C(F)(F)F)c3)c(Cl)cc2N2CCC[C@H]1C2` [Example 71, (9S)-3-chloro-N-cyclopropyl-2-(3-(trifluoromethyl)phenyl)-8,9-dihydro-6H-5,9-methanopyrido[2,3-b][1,4]diazocine-10(7H)-carboxamide], the Emax is at least 150% and the “TRP Activity (EC1.5, concentration of compound required to increase SIRT1 activity by 50% over control)” value was “A (EC1.5<1 μM)”.
The corresponding values for `O=C(Nc1ccnc(OC[C@@H](O)CO)c1)N1c2nc(-c3cccc(C(F)(F)F)c3)c(Cl)cc2N2CCC[C@H]1C2` [Example 83, (9S)-3-chloro-N-(2-((S)-2,3-dihydroxypropoxy)pyridin-4-yl)-2-(3-(trifluoromethyl)phenyl)-8,9-dihydro-6H-5,9-methanopyrido[2,3-b][1,4]diazocine-10(7H)-carboxamide] are at least 150% and “A (EC1.5<1 μM)”.
On to `C[C@@H](NC(=O)c1ccc2c(n1)N(C(=O)Nc1ccc(OC[C@H](O)CO)nn1)[C@H]1CCCN2C1)C(F)(F)F` [Example 55, (9S)-N10-(6-((R)-2,3-dihydroxypropoxy)pyridazin-3-yl)-N2-((R)-1,1,1-trifluoropropan-2-yl)-8,9-dihydro-6H-5,9-methanopyrido[2,3-b][1,4]diazocine-2,10(7H)-dicarboxamide], for which the Emax was at least 150%.
For `O=C(Nc1cnc(OC[C@H](O)CO)nc1)N1c2nc(-c3cccc(C(F)(F)F)c3)c(Cl)cc2N2CCC[C@H]1C2` [Example 69, (9S)-3-chloro-N-(2-((R)-2,3-dihydroxypropoxy)pyrimidin-5-yl)-2-(3-(trifluoromethyl)phenyl)-8,9-dihydro-6H-5,9-methanopyrido[2,3-b][1,4]diazocine-10(7H)-carboxamide], the Emax is at least 150% and the “TRP Activity (EC1.5, concentration of compound required to increase SIRT1 activity by 50% over control)” value is recorded as “A (EC1.5<1 μM)”.
The corresponding values for `O=C(Nc1ccccn1)N1c2nc(-c3cccc(C(F)(F)F)c3)c(Cl)cc2N2CCC[C@H]1C2` [Example 63, (9S)-3-chloro-N-(pyridin-2-yl)-2-(3-(trifluoromethyl)phenyl)-8,9-dihydro-6H-5,9-methanopyrido[2,3-b][1,4]diazocine-10(7H)-carboxamide] are at least 150% and “A (EC1.5<1 μM)”.
The corresponding values for `Cc1cc(-c2ccc3c(n2)N(C(=O)Nc2ccccn2)[C@H]2CCCN3C2)ccn1` [Example 4, (9S)-2-(2-methylpyridin-4-yl)-N-(pyridin-2-yl)-8,9-dihydro-6H-5,9-methanopyrido[2,3-b][1,4]diazocine-10(7H)-carboxamide] are at least 150% and “A (EC1.5<1 μM)”.
The corresponding values for `Cc1cc(-c2ccc3c(n2)N(C(=O)Nc2cnn(C)c2)[C@H]2CCCN3C2)ccn1` [Example 26, (9S)-N-(1-methyl-1H-pyrazol-4-yl)-2-(2-methylpyridin-4-yl)-8,9-dihydro-6H-5,9-methanopyrido[2,3-b][1,4]diazocine-10(7H)-carboxamide] are at least 150% and “B (EC1.5 1-25 μM)”.
